From US20170216252A1, “ANTI-BACTERIAL PYRUVATE KINASE MODULATOR COMPOUNDS, COMPOSITIONS, USES AND METHODS” (SIMON FRASER UNIVERSITY, priority 2014, published 2017)
Converted amounts (≈) assume the structure as drawn.

Legend:
MRSA PK = target: T1, MRSA PK (Staphylococcus aureus, UniProt Q6GG09); assay: MRSA PK activity, continuous LDH-coupled assay; format: biochemical, S. aureus (MRSA strain Sanger 252)
T1 construct: His tag (pET-28a(+) vector) (N); made in house; host or cells: E. coli BL-21 (DE3)
In short: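 Purified His-tagged MRSA PK (15 nM, E. coli-expressed) started reactions run up to 5 min at 30 °C. Activity was followed continuously by LDH-coupled NADH oxidation at 340 nm, with DMSO ≤1%. IC50 came from four-parameter variable-slope fits.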

S. aureus ATCC 29213 = assay: In vitro susceptibility, broth microdilution MIC; format: cell-based, Staphylococcus aureus; settings: Staphylococcus aureus, ATCC29213, Table 8; tested at least in duplicate, differing values all given; read-out: MIC
In short: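 The MIC against S. aureus 29213 was determined by CLSI 2-fold serial broth microdilution in Mueller Hinton broth. Plates were incubated for 18–24 h at 37 °C and read at OD600 with background subtracted. The MIC was the lowest concentration giving complete growth inhibition versus compound-free wells.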

T1 sequence (Q6GG09 whole entry): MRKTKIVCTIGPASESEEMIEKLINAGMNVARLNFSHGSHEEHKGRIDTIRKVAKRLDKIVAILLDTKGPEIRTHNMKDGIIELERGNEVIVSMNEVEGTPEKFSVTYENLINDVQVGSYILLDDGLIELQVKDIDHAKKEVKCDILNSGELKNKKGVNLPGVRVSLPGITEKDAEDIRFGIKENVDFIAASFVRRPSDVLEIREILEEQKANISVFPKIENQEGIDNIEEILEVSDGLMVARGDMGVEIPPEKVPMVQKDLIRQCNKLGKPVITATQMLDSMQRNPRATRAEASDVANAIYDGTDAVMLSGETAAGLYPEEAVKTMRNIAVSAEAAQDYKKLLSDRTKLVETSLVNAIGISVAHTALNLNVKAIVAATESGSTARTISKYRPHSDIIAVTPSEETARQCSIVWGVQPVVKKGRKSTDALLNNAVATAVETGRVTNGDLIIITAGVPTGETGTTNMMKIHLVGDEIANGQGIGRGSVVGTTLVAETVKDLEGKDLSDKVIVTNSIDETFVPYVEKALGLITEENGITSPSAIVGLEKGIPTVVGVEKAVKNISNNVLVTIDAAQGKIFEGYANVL

SMILES	IC50 (MRSA PK)	MIC (S. aureus ATCC 29213)	EC50 (MRSA PK)
Brc1ccc2cc(/C=C/c3cc(-c4ccccc4)on3)[nH]c2c1 [Compound 105, (E)-3-(2-(6-Bromo-1H-indol-2-yl)vinyl)-5-phenylisoxazole]	> 100000 nM	> 64 µg/mL	–
Cc1ccc(/C=C/c2cc3ccc(Br)cc3[nH]2)cn1 [Compound 106, (E)-6-Bromo-2-(2-(6-methylpyridin-3-yl)vinyl)-1H-indole]	> 1000 nM	> 64 µg/mL	–
COc1ccc(/C=C/c2cc3ccc(Br)cc3[nH]2)nc1 [Compound 107, (E)-6-Bromo-2-(2-(5-methoxypyridin-2-yl)vinyl)-1H-indole]	50 to 100 nM	> 64 µg/mL	–
Clc1ccc(/C=C/c2cc3ccc(Br)cc3[nH]2)nc1 [Compound 108, (E)-6-Bromo-2-(2-(5-chloropyridin-2-yl)vinyl)-1H-indole]	100 to 1000 nM	> 64 µg/mL	–
Cc1cnc(/C=C/c2cc3ccc(Br)cc3[nH]2)cn1 [Compound 109, (E)-6-Bromo-2-(2-(5-methylpyrazin-2-yl)vinyl)-1H-indole]	> 1000 nM	> 64 µg/mL	–
Brc1ccc2cc(/C=C/c3cn4ccccc4n3)[nH]c2c1 [Compound 110, (E)-2-(2-(6-Bromo-1H-indol-2-yl)vinyl)imidazo[1,2-a]pyridine]	< 50 nM	> 64 µg/mL	–
Clc1cnc(/C=C/c2cc3ccc(Br)cc3[nH]2)cn1 [Compound 118, (E)-6-Bromo-2-(2-(5-chloropyrazin-2-yl)vinyl)-1H-indole]	50 to 100 nM	16 µg/mL (≈ 47.8 µM)	–
Clc1cc(Cl)cc(CCc2cc3ccc(Br)cc3[nH]2)c1 [Compound 119, 6-Bromo-2-(3,5-dichlorophenethyl)-1H-indole]	> 100000 nM	> 64 µg/mL	–
Clc1ccc(CCc2cc3ccc(Br)cc3[nH]2)cn1 [Compound 120, 6-Bromo-2-(2-(6-chloropyridin-3-yl)ethyl)-1H-indole]	50 to 100 nM	> 64 µg/mL	–
Brc1cncc(CCc2cc3ccc(Br)cc3[nH]2)c1 [Compound 121, 6-Bromo-2-(2-(5-bromopyridin-3-yl)ethyl)-1H-indole]	> 1000 nM	> 64 µg/mL	–
Brc1ccc2cc(CCc3cn4ccccc4n3)[nH]c2c1 [Compound 125, 2-(2-(6-Bromo-1H-indol-2-yl)ethyl)imidazo[1,2-a]pyridine]	> 1000 nM	> 64 µg/mL	–
Brc1ccc2cc(CCc3cn4c(n3)CCCC4)[nH]c2c1 [Compound 126, 2-(2-(6-Bromo-1H-indol-2-yl)ethyl)-5,6,7,8-tetrahydroimidazo[1,2-a]pyridine]	> 100000 nM	64 µg/mL (≈ 186 µM)	–
CC(=O)c1c(CCc2cn3c(n2)CCCC3)[nH]c2cc(Br)ccc12 [Compound 127, 1-(6-Bromo-2-(2-(5,6,7,8-tetrahydroimidazo[1,2-a]pyridin-2-yl)ethyl)-1H-indol-3-yl)ethan-1-one]	> 100000 nM	64 µg/mL (≈ 166 µM)	–
O=C(Nc1ccc(Cl)cc1)c1cc2ccc(Br)cc2[nH]1 [Compound 128, 6-bromo-N-(4-chlorophenyl)-1H-indole-2-carboxamide]	17 nM	> 64 µg/mL	–
O=C(Nc1ccc(Cl)cc1)c1[nH]c2cc(Br)ccc2c1C(=O)O [Compound 129, 6-Bromo-2-((4-chlorophenyl)carbamoyl)-1H-indole-3-carboxylic acid]	< 50 nM	16 µg/mL (≈ 40.6 µM)	–
COC(=O)c1c(C(=O)Nc2ccc(Cl)cc2)[nH]c2cc(Br)ccc12 [Compound 130, Methyl 6-bromo-2-((4-chlorophenyl)carbamoyl)-1H-indole-3-carboxylate]	< 50 nM	> 64 µg/mL	–

SMILES	IC50 (MRSA PK)	MIC (S. aureus ATCC 29213)	EC50 (MRSA PK)
COC(=O)c1c(C(=O)Nc2ccc(Br)cc2)[nH]c2cc(Br)ccc12 [Compound 131, Methyl 6-bromo-2-((4-bromophenyl)carbamoyl)-1H-indole-3-carboxylate]	–	> 64 µg/mL	15 nM
O=C(Nc1ccc(Br)cc1)c1[nH]c2cc(Br)ccc2c1C(=O)O [Compound 132, 6-Bromo-2-((4-bromophenyl)carbamoyl)-1H-indole-3-carboxylic acid]	< 50 nM	16 µg/mL (≈ 36.5 µM)	–
COC(=O)c1c(C(=O)Nc2ccc(OC)cc2)[nH]c2cc(Br)ccc12 [Compound 133, Methyl 6-bromo-2-((4-methoxyphenyl)carbamoyl)-1H-indole-3-carboxylate]	< 50 nM	> 64 µg/mL	–
COc1ccc(NC(=O)c2[nH]c3cc(Br)ccc3c2C(=O)O)cc1 [Compound 134, 6-Bromo-2-((4-methoxyphenyl)carbamoyl)-1H-indole-3-carboxylic acid]	< 50 nM	64 µg/mL (≈ 164 µM)	–
COC(=O)c1c(C(=O)Nc2ccc(OC)nc2)[nH]c2cc(Br)ccc12 [Compound 135, Methyl 6-bromo-2-((6-methoxypyridin-3-yl)carbamoyl)-1H-indole-3-carboxylate]	–	> 64 µg/mL	31.7 nM
COc1ccc(NC(=O)c2[nH]c3cc(Br)ccc3c2C(=O)O)cn1 [Compound 136, 6-Bromo-2-((6-methoxypyridin-3-yl)carbamoyl)-1H-indole-3-carboxylic acid]	100 to 1000 nM	> 64 µg/mL	–
COC(=O)c1c(C(=O)Nc2ccc(Cl)cn2)[nH]c2cc(Br)ccc12 [Compound 137, Methyl 6-bromo-2-((5-chloropyridin-2-yl)carbamoyl)-1H-indole-3-carboxylate]	–	> 64 µg/mL	13.2 nM
COC(=O)c1c(C(=O)Nc2ccc(Cl)nc2)[nH]c2cc(Br)ccc12 [Compound 138, Methyl 6-bromo-2-((6-chloropyridin-3-yl)carbamoyl)-1H-indole-3-carboxylate]	< 50 nM	> 64 µg/mL	–
O=C(Nc1ccc(Cl)nc1)c1[nH]c2cc(Br)ccc2c1C(=O)O [Compound 139, 6-Bromo-2-((6-chloropyridin-3-yl)carbamoyl)-1H-indole-3-carboxylic acid]	50 to 100 nM	> 64 µg/mL	–
Clc1ccc(C#Cc2cc3ccc(Br)cc3[nH]2)nc1 [Compound 141, 6-bromo-2-((5-chloropyridin-2-yl)ethynyl)-1H-indole]	100 to 1000 nM	> 64 µg/mL	–
Clc1cnc(C#Cc2cc3ccc(Br)cc3[nH]2)nc1 [Compound 142, 6-Bromo-2-((5-chloropyrimidin-2-yl)ethynyl)-1H-indole]	50 to 100 nM	> 64 µg/mL	–
Brc1ccc2cc(CNCc3ccccc3)[nH]c2c1 [Compound 146, N-Benzyl-1-(6-bromo-1H-indol-2-yl)methanamine]	> 1000 nM	32 µg/mL (≈ 102 µM)	–
Clc1ccc(NCc2cc3ccc(Br)cc3[nH]2)cc1 [Compound 147, N-((6-Bromo-1H-indol-2-yl)methyl)-4-chloroaniline]	–	> 64 µg/mL	244 nM
Brc1ccc2cc(CSc3nc4ccccc4[nH]3)[nH]c2c1 [Compound 148, 2-(((6-Bromo-1H-indol-2-yl)methyl)thio)-1H-benzo[d]imidazole]	> 1000 nM	32 µg/mL (≈ 89.3 µM)	–
Brc1ccc2cc(CSCc3ccccc3)[nH]c2c1 [Compound 149, 2-((Benzylthio)methyl)-6-bromo-1H-indole]	> 1000 nM	> 64 µg/mL	–
O=C(O)c1c(/C=C/c2cc(Cl)cc(Cl)c2)[nH]c2cc(Br)ccc12 [Compound 150, (E)-6-Bromo-2-(3,5-dichlorostyryl)-1H-indole-3-carboxylic acid]	> 1000 nM	8 µg/mL (≈ 19.5 µM)	–
